These results are taken from US11498930B2 (BLUERAY THERAPEUTICS (SHANGHAI) CO., LTD., priority 2018, dated 2022).

Where two headings read alike, the source gives them in different places. A value given as a limit tells only on which side of the number the result lay.

The target in one test is SHP2^E76A protein (Homo sapiens (Human), UniProt Q06124, E76A). The test can be described thus: SHP2 enzyme activity inhibition experiment. It is filed as biochemical. The essentials:
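Compounds tested at 10 concentrations in 3-fold serial dilution. IC50 from a four-parameter Hill-slope nonlinear fit of enzyme activity versus concentration.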

The test system of test [1] is phosphorylation level of intracellular protein kinase (ERK) in MOLM13 cells. The test can be described thus: Phosphorylated protein kinase (p-ERK) cell experiment (AlphaLISA). It is filed as cell-based. To be noted: Homo sapiens, MOLM-13, MOLM13 cells. As for the experimental part: The inhibitory activities of the compounds on the phosphorylation level of intracellular protein kinase (ERK) were determined by AlphaLISA method.
Firstly, the cells were treated with the compounds. The compounds to be tested were subjected to 3-fold dilution with 100% DMSO, and a total of 9 different concentration gradients were set. MOLM13 cells were then seeded into 96-well plates at a density of 30,000 cells per well in a volume of 100 µL per well. […] of DMSO or the test compounds with different concentrations was then transferred into each well, setting two duplicates for each concentration, and the final concentration of DMSO was controlled at 0.5%.
Secondly, the cells were lysed. After 2 hours of cell treatment, the medium was removed, and the cells were washed 3 times with phosphate buffered saline. 50 µL of freshly prepared lysis buffer was added to each well, and the plates were shaken and kept at room temperature for 10 minutes.
Thirdly, the phosphorylated extracellular signal-regulated kinase (p-ERK) was detected by AlphaLISA@ SureFire® Ultra™ p-ERK 1/2 (Thr202/Tyr204) kit (Perkin Elmer, ALSU-PERK-A10K). 10 µL of the above lysate was transferred to a 384-well plate (Perkin Elmer, 6005350), and the phosphorylation level of the extracellular signal-regulated kinase of the sample was detected according to the product instructions. The signal was read using AlphaScreen detector on Spectra max i3 (Molecular Devices). The percentage of inhibition (%) was calculated by the following formula: Inhibition percentage(%)=(1−p-ERK signal of compound-treated cells/p-ERK signal of DMSO-treated cells)*100
A general note: Bead proximity is the source of the signal in Alpha formats.

For a further test, the system named is MOLM-13 cells. The test can be described thus: MOLM-13 cell proliferation experiment. It is filed as cell-based. To be noted: Homo sapiens. Here is the method: After 3 days, 5 µL of CellTiter-Glo reagent (Promega, ZG7572) was added to each well, and the plates were kept at room temperature in the dark for 10 minutes. The […] was detected by Spectra max i3 (Molecular Devices). The relative growth rate of the treated cells was compared with that of DMSO control.

The mark [2] stands for this setting: SHP2 enzyme activity, Tables 1.1 and 1.2, read-out: IC50.
Where [3] appears, read: Table 4, read-out: SHP2 enzyme activity IC50.
[4] abbreviates: p-ERK, 2 hours of cell treatment, Tables 2.1 and 2.2, read-out: IC50.
Where [5] appears, read: MOLM-13, 72 h, MOLM-13 cell proliferation, 3 days, Tables 3.1 and 3.2, read-out: IC50.
[6] abbreviates: MOLM-13, read-out: MOLM-13 cell proliferation IC50.

Sequence of SHP2^E76A protein (Q06124 whole entry E76A): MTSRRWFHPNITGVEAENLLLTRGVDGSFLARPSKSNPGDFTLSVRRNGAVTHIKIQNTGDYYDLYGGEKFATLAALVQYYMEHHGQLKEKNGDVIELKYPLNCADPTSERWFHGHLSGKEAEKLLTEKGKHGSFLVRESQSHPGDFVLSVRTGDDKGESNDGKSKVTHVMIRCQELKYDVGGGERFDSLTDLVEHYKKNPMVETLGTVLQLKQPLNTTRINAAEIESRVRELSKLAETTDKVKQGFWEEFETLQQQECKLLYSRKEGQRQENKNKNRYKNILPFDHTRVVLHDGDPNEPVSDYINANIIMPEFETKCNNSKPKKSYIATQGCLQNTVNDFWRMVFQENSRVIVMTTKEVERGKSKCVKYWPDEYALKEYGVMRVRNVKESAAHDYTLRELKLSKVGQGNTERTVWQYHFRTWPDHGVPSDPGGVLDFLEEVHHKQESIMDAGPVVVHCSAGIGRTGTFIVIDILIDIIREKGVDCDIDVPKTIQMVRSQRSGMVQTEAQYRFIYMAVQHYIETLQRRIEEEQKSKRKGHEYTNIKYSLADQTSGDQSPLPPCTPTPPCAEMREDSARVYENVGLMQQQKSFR

Take `Cc1nccc(Sc2cnc(N3CCC4(CC3)CO[C@@H](C)[C@H]4N)n3ccnc23)c1Cl` [(3S,4S)-8-(8-((3-chloro-2-methylpyridin-4-yl)thio)imidazo[1,2-c]pyrimidin-5-yl)-3-methyl-2-oxa-8-azaspiro[4.5]decan-4-amine]: the IC50 at SHP2^E76A protein (setting [2]) was below 100 nM; at SHP2^E76A protein (setting [3]) it was 15 nM; in test [1] (Table 4, read-out: p-ERK IC50), 19 nM; in test [1] (setting [4]) it was below 100 nM; with MOLM-13 cells (setting [5]), below 100 nM; in the test on MOLM-13 cells (setting [6]) it was 50 nM.

For `Cc1nccc(Sc2cnc(N3CCC4(CC3)CO[C@@H](C)[C@H]4N)n3cnnc23)c1Cl` [(3S,4S)-8-(8-((3-chloro-2-methylpyridin-4-yl)thio)-[1,2,4]triazolo[4,3-c]pyrimidin-5-yl)-3-methyl-2-oxa-8-azaspiro[4.5]decan-4-amine], the IC50 at SHP2^E76A protein (setting [2]) was below 100 nM; at SHP2^E76A protein (setting [3]) it was 17 nM; in test [1] (Table 4, read-out: p-ERK IC50) it was 369 nM; in test [1] (setting [4]) it was 100 to 1000 nM; with MOLM-13 cells (setting [6]) it was 277 nM.

For `COc1nccc(Sc2cnc(N3CCC4(CCC[C@H]4N)CC3)n3ccnc23)c1Cl` [(R)-8-(8-((3-chloro-2-methoxypyridin-4-yl)thio)imidazo[1,2-c]pyrimidin-5-yl)-8-azaspiro[4.5]decan-1-amine], the IC50 on SHP2^E76A protein (setting [2]) was below 100 nM; in test [1] (setting [4]), 100 to 1000 nM; in the test with MOLM-13 cells (setting [5]), 100 to 1000 nM.

In the case of `C=CC(=O)Nc1cccc(Sc2cnc(N3CCC4(CCC[C@H]4N)CC3)n3ccnc23)c1Cl` [(R)-N-(3-((5-(1-amino-8-azaspiro[4.5]decan-8-yl)imidazo[1,2-c]pyrimidin-8-yl)thio)-2-chlorophenyl)acrylamide], the IC50 (on SHP2^E76A protein (setting [2]); in test [1] (setting [4]); in the test on MOLM-13 cells (setting [5])) was 100 to 1000 nM in each case.

In the case of `C[C@@H]1OCC2(CCN(c3ncc(Sc4ccnc(N)c4Cl)c4nncn34)CC2)[C@@H]1N`, the IC50 at SHP2^E76A protein (setting [2]) was below 100 nM; at SHP2^E76A protein (setting [3]), 13 nM; in test [1] (Table 4, read-out: p-ERK IC50), 335 nM; in the test on MOLM-13 cells (setting [5]), 100 to 1000 nM; in the test with MOLM-13 cells (setting [6]), 102 nM.

In the case of `N[C@@H]1CCCC12CCN(c1ncc(Sc3ccnc(F)c3Cl)c3nccn13)CC2` [(R)-8-(8-((3-chloro-2-fluoropyridin-4-yl)thio)imidazo[1,2-c]pyrimidin-5-yl)-8-azaspiro[4.5]decan-1-amine], the results for the IC50 (at SHP2^E76A protein (setting [2]); in test [1] (setting [4]); with MOLM-13 cells (setting [5])) were below 100 nM, 100 to 1000 nM and 100 to 1000 nM, respectively.

Consider `N[C@@H]1CCCCC12CCN(c1ncc(Sc3cccc(Cl)c3Cl)c3nncn13)CC2` [(R)-3-(8-((2,3-dichlorophenyl)thio)-[1,2,4]triazolo[4,3-c]pyrimidin-5-yl)-3-azaspiro[5.5]undecan-7-amine], for which the values for the IC50 (on SHP2^E76A protein (setting [2]); in test [1] (setting [4]); in the test with MOLM-13 cells (setting [5])) were 100 to 1000 nM, 1000 to 10000 nM and 1000 to 10000 nM, respectively.

With `N[C@@H]1CCCC12CCN(c1ncc(Sc3ccncc3Cl)c3nncn13)CC2` [(R)-8-(8-((3-chloropyridin-4-yl)thio)-[1,2,4]triazolo[4,3-c]pyrimidin-5-yl)-8-azaspiro[4.5]decan-1-amine], the IC50 on SHP2^E76A protein (setting [2]) is 100 to 1000 nM; at SHP2^E76A protein (setting [3]), 100 nM; in test [1] (Table 4, read-out: p-ERK IC50) it was 357 nM; in test [1] (setting [4]), 100 to 1000 nM; in the test with MOLM-13 cells (setting [5]), 100 to 1000 nM; in the test with MOLM-13 cells (setting [6]), 324 nM.

Take `Cc1nc(N)cc(Sc2cnc(N3CCC4(CC3)CC(F)(F)C[C@H]4N)n3ccnc23)c1Cl` [(R)-8-(8-((6-amino-3-chloro-2-methyl-pyridin-4-yl)thio)imidazo[1,2-c]pyrimidin-5-yl)-3,3-difluoro-8-azaspiro[4.5]decan-1-amine]: the IC50 at SHP2^E76A protein (setting [2]) is below 100 nM; at SHP2^E76A protein (setting [3]), 26 nM; in test [1] (Table 4, read-out: p-ERK IC50), 97 nM; in test [1] (setting [4]), below 100 nM; in the test with MOLM-13 cells (setting [6]), 150 nM.

Consider `Nc1cc(Sc2cnc(N3CCC4(CCC[C@H]4N)CC3)n3ncnc23)c(Cl)c(Cl)n1` [(R)-8-(8-((6-amino-2,3-dichloropyridin-4-yl)thio)-[1,2,4]triazolo[1,5-c]pyrimidin-5-yl)-8-azaspiro[4.5]decan-1-amine], for which the IC50 (on SHP2^E76A protein (setting [2]); in test [1] (setting [4]); in the test with MOLM-13 cells (setting [5])) was 100 to 1000 nM throughout.

For `N[C@@H]1CCCC12CCN(c1ncc(Sc3ccccc3Cl)c3nncn13)CC2` [(R)-8-(8-((2-chlorophenyl)thio)-[1,2,4]triazolo[4,3-c]pyrimidin-5-yl)-8-azaspiro[4.5]decan-1-amine], the IC50 was 100 to 1000 nM at SHP2^E76A protein (setting [2]); 140 nM on SHP2^E76A protein (setting [3]); 548 nM in test [1] (Table 4, read-out: p-ERK IC50); 100 to 1000 nM in test [1] (setting [4]); 100 to 1000 nM with MOLM-13 cells (setting [5]); 485 nM in the test with MOLM-13 cells (setting [6]).

`N[C@@H]1CCCC12CCN(c1ncc(Sc3cccnc3C(F)(F)F)c3nncn13)CC2` [(R)-8-(8-((2-(trifluoromethyl)pyridin-3-yl)thio)-[1,2,4]triazolo[4,3-c]pyrimidin-5-yl)-8-azaspiro[4.5]decan-1-amine]: the IC50 at SHP2^E76A protein (setting [2]) lay in the range of 100 to 1000 nM; in test [1] (setting [4]) it was 1000 to 10000 nM; with MOLM-13 cells (setting [5]), 100 to 1000 nM.

For the molecule `Cc1nccc(Sc2cnc(N3CCC4(CCC[C@H]4N)CC3)n3cnnc23)c1Cl` [(R)-8-(8-((3-chloro-2-methylpyridin-4-yl)thio)-[1,2,4]triazolo[4,3-c]pyrimidin-5-yl)-8-azaspiro[4.5]decan-1-amine], the IC50 on SHP2^E76A protein (setting [2]) was below 100 nM; on SHP2^E76A protein (setting [3]), 27 nM; in test [1] (Table 4, read-out: p-ERK IC50), 177 nM; in test [1] (setting [4]), 100 to 1000 nM; in the test with MOLM-13 cells (setting [5]), 100 to 1000 nM; in the test with MOLM-13 cells (setting [6]), 232 nM.

For `N[C@@H]1CCCC12CCN(c1ncc(Sc3cccnc3C(F)(F)F)c3nccn13)CC2` [(R)-8-(8-((2-(trifluoromethyl)pyridin-3-yl)thio)imidazo[1,2-c]pyrimidin-5-yl)-8-azaspiro[4.5]decan-1-amine], the IC50 at SHP2^E76A protein (setting [2]) was below 100 nM; in test [1] (setting [4]) it was 100 to 1000 nM; with MOLM-13 cells (setting [5]) it was 100 to 1000 nM.

Regarding `CC1(CN)CCN(c2ncc(Sc3cccc(Cl)c3Cl)c3nncn23)CC1` [(1-(8-((2,3-dichlorophenyl)thio)-[1,2,4]triazolo[4,3-c]pyrimidin-5-yl)-4-methylpiperidin-4-yl)methanamine], the IC50 at SHP2^E76A protein (setting [2]) was below 100 nM; at SHP2^E76A protein (setting [3]) it was 40 nM; in test [1] (Table 4, read-out: p-ERK IC50), 170 nM; in test [1] (setting [4]), 100 to 1000 nM; in the test with MOLM-13 cells (setting [5]), 1000 to 10000 nM; in the test on MOLM-13 cells (setting [6]), 1360 nM.

`C[C@@H]1OCC2(CCN(c3ncc(Sc4cccc(Cl)c4Cl)c4nncn34)CC2)[C@@H]1N`: the IC50 on SHP2^E76A protein (setting [3]) amounted to 3 nM; in test [1] (Table 4, read-out: p-ERK IC50) it was 195 nM; in the test with MOLM-13 cells (setting [6]), 158 nM.

As for `C[C@@H]1OCC2(CCN(c3ncc(Sc4cccc(Cl)c4Cl)c4nccn34)CC2)[C@@H]1N` [(3S,4S)-8-(8-((2,3-dichlorophenyl)thio)imidazo[1,2-c]pyrimidin-5-yl)-3-methyl-2-oxa-8-azaspiro[4.5]decan-4-amine], the IC50 on SHP2^E76A protein (setting [2]) is below 100 nM; at SHP2^E76A protein (setting [3]), 8 nM; in test [1] (Table 4, read-out: p-ERK IC50) it was 103 nM; in test [1] (setting [4]), 100 to 1000 nM; with MOLM-13 cells (setting [5]), below 100 nM; in the test on MOLM-13 cells (setting [6]), 68 nM.

As for `NCC1CCN(c2ncc(Sc3cccc(Cl)c3Cl)c3nncn23)C1` (stereo not drawn) [(1-(8-((2,3-dichlorophenyl)thio)-[1,2,4]triazolo[4,3-c]pyrimidin-5-yl)pyrrolidin-3-yl)methanamine], the IC50 fell in the range of 100 to 1000 nM at SHP2^E76A protein (setting [2]), 1000 to 10000 nM in test [1] (setting [4]) and 1000 to 10000 nM in the test with MOLM-13 cells (setting [5]).
